Patent US12685744B2, “Anti-fungal compositions and methods for using same” (The Research Foundation for The State University of New York, priority 2019, dated 2026)

Columns and labels:
[1] = system: C. albicans wild type strain (SC5314); assay: Checkerboard synergy assay / MIC analysis, OD600; format: cell-based, Candida albicans
Procedure: (§1) The C. albicans wild type strain (SC5314) was cultured from frozen stock in Yeast Peptone Dextrose (YPD) and grown overnight at 30° C. with shaking at 225 rpm. Cell concentration was determined by hemocytometer and used to adjust the inoculum to 2×10^3 cells/ml in fresh YPD, which is 2× the desired final concentration. 50 ul of the inoculum was added to each well for a final culture volume of 100 ul. The final cell concentration was 1×10^3 cells/ml. The plate was sealed with plastic film and placed in a BioTek Synergy HT plate reader for 24 hours at 37° C. At each time point, the plate was shaken for 10 seconds prior to each OD600 reading.

[2] = system: C. albicans strain SC5314 (Wild Type); assay: Growth of C. albicans with ManSIFG and 0.2M CaCl2, cell count by hemocytometer; format: cell-based, Candida albicans; conditions: 0.2M CaCl2 alone
Procedure: This signaling pathway is considered to regulate synthesis of chitin, an important carbohydrate which is part of the cell wall and septum, which is formed during cell division. C. albicans strain SC5314 (wild type) was cultured from frozen stock in Yeast Nitrogen Base media (YNB) with 2% glucose and grown overnight at 30° C. with shaking at 225 rpm. Cell concentration was determined by hemocytometer. […] […] (62.5 μg/ml) was added to test cultures but not to control cultures. The experiment was done in triplicates. The culture tubes were placed on a nutator inside a 30° C. incubator and grown for 24 hours. Time points were taken at 6, 12, and 24 hours. Cell concentration was monitored by hemocytometer at 6, 12, and 24-hour time points. Statistical analysis was done using two-tailed Student's t-Test.

[3] = system: wildtype C. albicans strain SC5314; assay: Growth of C. albicans in YNB, cell count by hemocytometer; format: cell-based, Candida albicans
Procedure: (§2) The wildtype C. albicans strain SC5314 was cultured from frozen stock in Yeast Nitrogen Base (YNB) media with 2% glucose and grown overnight at 30° C. with shaking at 225 rpm as described previously (Chinnici et al., 2019). Cell concentration of the overnight culture was determined by hemocytometer. This was used to inoculate fresh cultures with a final starting concentration of 5×10^5 cells/ml in fresh YNB contain either no treatment (control) or various concentrations (31.25, 62.5, or 125 μg/ml) of the mannose disaccharide inhibitor. The cultures were run in duplicates and incubated at 30° C. on a nutator. Cell concentration was analyzed by counting on hemocytometer at 10, 14, 18, and 24-hour time points. Statistical analysis was done using two-tailed Student's t-Test.
as §2, with “previously.” for “previously (Chinnici et al., 2019).”, “62.5 μg/ml” for “various concentrations (31.25, 62.5, or 125 μg/ml)”, “D-Mannose.” for “the mannose disaccharide inhibitor.”

[4] = system: Candida krusei, (ATCC-6258) wild type strain; assay: Antifungal activity against C. krusei; format: cell-based; conditions: even at very low concentrations (FIG. 13)
[5] = system: Candida parapsilosis (ATCC-22019) wild type strain; assay: Antifungal activity against C. parapsilosis; format: cell-based; conditions: at very low concentrations (FIG. 12)
Procedure: as §1, with “ManSIFG MIC analysis for Candida albicans and effects of CaCl2. A checkerboard synergy assay was used to test ManSIFG and CaCl2) each by themselves and in various combinations of each other. Drug concentrations to be tested were prepared 4× concentrated and dispensed into a sterile 96-well culture plate. 25 ul of each ManSIFG dilution was dispensed in each column, such that concentrations increased along the x-axis of the plate. 25 ul of each CaCl2 dilution was dispensed in each row, such that concentrations increased along the y-axis of the plate. The C.” for “The C.”
Effect of ManSIFG on additional Candida species. Other Candida species were tested. Candida parapsilosis (ATCC-22019) wild type strain was used. Methods are same as described above. […]

[6] = system: C. albicans strain SC5314 (Wild Type); assay: Germ tube / hypha formation of C. albicans induced by 20% FBS, count by hemocytometer; format: cell-based, Candida albicans; conditions: 62.5 μg/ml, 37° C., significantly (FIG. 3)
[7] = system: Trychophyton rubrum (ATCC-MYA-4607); assay: MIC testing against toe nail fungus; format: cell-based, Trichophyton rubrum; conditions: various concentrations, SDB, 25° C., 6 days (FIG. 10)
Procedure: Effect […] on other fungal cells. Trichophyton rubrum is the fungal pathogen that causes onychomycosis or toe nail fungus. […] The experiment was performed in triplicates. […] A 50 ul inoculum was added to each well for a final culture volume of 100 ul. […] The plate was cultured for 6 days at 25° C. and then imaged using an iPhone camera.

[8] = system: Candida glabrata (ATCC-2001) wild type strain; assay: Antifungal activity against C. glabrata; format: cell-based; conditions: FIG. 14
[9] = system: Candida tropicalis (ATCC-750) wild type strain; assay: Antifungal activity against C. tropicalis; format: cell-based; conditions: FIG. 15

[Ca+2].[Cl-].[Cl-] [CaCl2, Calcium chloride]
antifungal effect of CaCl2 by itself ([1]; very high concentrations (FIG. 9)): has an antifungal effect | growth of C. albicans as compared to control cultures ([2]; 12 hours (FIG. 4A)): significantly inhibit | growth of C. albicans as compared to control cultures ([2]; 24 hours (FIG. 4B)): significantly inhibit

O=C[C@@H](O)[C@@H](O)[C@H](O)[C@H](O)CO [D-Mannose, reference compound]
growth of C. albicans wild type as compared to control cultures ([3]; D-Mannose 62.5 μg/ml, 10, 14, 18 and 24-hour time points): not inhibited

OC[C@H]1O[C@H](SC[C@H]2CNC[C@@H](O)[C@@H]2O)[C@@H](O)[C@@H](O)[C@@H]1O [ManSIFG, (2R,3S,4S,5S,6R)-2-((((3S,4R,5R)-4,5-dihydroxypiperidin-3-yl)methyl)thio)-6-(hydroxymethyl)tetrahydro-2H-pyran-3,4,5-triol]
antifungal activity against Candida krucei [4]: has antifungal activity | antifungal activity against Candida parapsilosis [5]: has antifungal activity | growth of C. albicans wild type as compared to control cultures ([3]; 62.5 μg/ml, 10 hours, significantly (FIG. 2)): inhibited | growth of C. albicans, difference between control and inhibitor cultures ([3]; 62.5 μg/ml, later time points (14, 18, 24 hours)): no significant difference | formation of germ tubes as compared to control cultures ([6]; 12 hours): inhibited | formation of germ tubes as compared to control cultures ([6]; 24 hours): inhibited | MIC ([1]; Candida albicans, SC5314, YPD, 37° C., 24 hours, OD600 (FIG. 7)): 31.2 to 62.5 µg/mL | effect of addition of CaCl2 on antifungal activity of ManSIFG ([1]; ManSIFG 7.81 μg/ml plus 100 mg/ml CaCl2 vs CaCl2 alone (FIG. 8)): improves the antifungal activity | inhibitory effect against Trychophoton rubrum [7]: no inhibitory effect | antifungal activity against Candida glabrata [8]: has antifungal activity | antifungal activity against Candida tropicalis [9]: has antifungal activity
